Source: US7449495B2, “Retinoid derivatives with antiangiogenic, antitumoral and proapoptotic activities” (Sigma-Tau Industrie Farmaceutiche Riunite S.p.A., priority 2001, dated 2008)

Experiments:
[1] = tested on: Human ovarian carcinoma A2780/Dx (drug resistant); assay: Cytotoxicity test (sulphorodamine B), A2780/Dx; assay type: cell-based; conditions: 24 h incubation, survival 48 h after removal
Source text: (§1) Different cell lines deriving from solid tumors were also used. • 1. Human prostate carcinoma PC3 and DU145. These cell lines were maintained in RPMI 1640 medium containing 10% FCS, 1% sodium pyruvate and 1% glutamine; • 2. Human colon adenocarcinoma LoVo. This cell line was maintained in HAM's F-12 medium, containing 10% FCS and 1% glutamine. • 3. Human ovarian carcinoma such as A2780 and A2780/Dx, sensitive and resistant to drugs, respectively (doxorubicin, taxol, etoposide, vincristine); IGROV-1 and IGROV-1/Pt, sensitive and resistant to platinum-based chemotherapy, respectively, were maintained in RPMI 1640 medium containing 10% FCS, 1% sodium pyruvate and 1% glutamine; • 4. Human melanoma MeWo and MeS 2.21, glioblastoma GBM, no small cell lung carcinomas A431, NCI—H460, osteosarcomas SAOS and U2OS were maintained in RPMI 1640 medium containing 10% FCS, 1% sodium pyruvate and 1% glutamine.
(§2) The cytotoxicity tests were carried out using NB4 or HL-60 cells in suspension (10000/well). The cells were seeded in a volume of 250 μl in 96 well plates and incubated for 24 hours at 37° C. […] The optical density was measured using a Multiskan spectrophotometer at 540 nm. […]
(§3) Cell survival was determined by incubation with ST1926 for 24 hours, 48 hours after the removal of the compound. […]

[2] = tested on: F9 embryonic teratocarcinoma cells; conditions: cited from earlier work
[3] = tested on: human prostate carcinoma PC3 cells; assay: Cyto-fluorometric cell cycle analysis, PC3; assay type: cell-based; parameters: key to APOPTOSIS: % of cells (cell cycle phase percentages)
Method: To evaluate the effect of the compound according to the invention, on various phases of the cell cycle, cyto-fluorometric cell cycle analyses were performed.
On the third day of treatment 500.000 cells were sampled, centrifuged at 180×g for 5 minutes, washed twice in calcium and magnesium free PBS. The cells (1×10^6/ml of fixative) were fixed for at least 1 hour in a fixation mixture comprised of acetone/methanol 1:4 v/v maintained at −20° C. and 50% of calcium and magnesium free PBS; then the cells were centrifuged, washed in calcium and magnesium free PBS, and again centrifuged and washed. The cellular precipitate was incubated for 30 minutes in the dark at room temperature with 200 μl of […] (100 μg/ml) and 200 μl of RNAse (150 KU/mg).
The samples with filtered through nylon filters (60-80 μm diameter) and analysed by cyto-fluorimeter FACScan (Becton Dickinson), acquiring 20000 events/sample, at an excitation wavelength of 488 nm and emission wavelength of 620 nm. The analysis of the percentages of the cell cycle phases was performed using a dedicated software package, Modfit v. 2.0 (Becton Dickinson).
For the cell cycle analysis of prostate carcinoma cells PC3, the cells were seeded in plates at a density of 500000 cells/ml in RPMI medium. After treatment with compound ST1926 for 24 hours, cells were analysed as described above.

[4] = tested on: no small cell lung carcinoma NCI-H460; assay: Cytotoxicity test (sulphorodamine B), NCI-H460; assay type: cell-based; conditions: Homo sapiens, 24 h incubation, survival 48 h after removal
Source text: as §1, §2, §3

[5] = tested on: HL60 acute promyelocytic leukaemia cell line; assay: Cytotoxicity test (sulphorodamine B), HL-60; assay type: cell-based; conditions: Homo sapiens, 24 h incubation, survival 48 h after removal
Source text: To carry out the cytotoxicity tests, two acute promyelocytic leukaemia (APL) cell lines were used. • 1. Cell line NB4, carrying the chromosomal translocation t(15; 17) which generates the fusion protein PML/RARα. This cell line is extremely sensitive to the differentiating action of pharmaceutical doses of ATRA (10^−7-10^−6 M); • 2. Cell line HL60, which responds to ATRA less sensitively with respect to cell line NB4.
These cell lines were maintained in RPMI 1640 containing 10% foetal calf serum (FCS) and 1% glutamine.
The cytotoxicity tests were carried out using NB4 or HL-60 cells in suspension (10000/well). The cells were seeded in a volume of 250 μl in 96 well plates and incubated for 24 hours at 37° C. The following day, test compound ST 1926 [(2E)-3-[3′-(1-Adamantyl)-4′-hydroxy[1,1′-biphenyl]-4-yl]-2-propenoate/ic acid] was added at increasing concentrations, and the cells were incubated for a further 24 hours at 37° C. in a humidified atmosphere containing 5% CO2. On the 3rd day, the medium was removed by centrifuging the plate at 1600×g for 10 min and the supernatant decanted. […] The optical density was measured using a Multiskan spectrophotometer at 540 nm.
as §3

[6] = PC3, 0.02 μM, 24 hours of treatment and 0 hours of recovery
[7] = PC3, 0.02 μM, 24 hours of treatment and 24 hours of recovery
[8] = PC3, 0.05 μM, 24 hours of treatment and 0 hours of recovery
[9] = PC3, 0.05 μM, 24 hours of treatment and 24 hours of recovery
[10] = PC3, 0.1 μM, 24 hours of treatment and 0 hours of recovery
[11] = PC3, 0.1 μM, 24 hours of treatment and 24 hours of recovery
[12] = PC3, 0.2 μM, 24 hours of treatment and 24 hours of recovery

For `O=C(O)/C=C/c1ccc(-c2ccc(O)c(C34CC5CC(CC(C5)C3)C4)c2)cc1` [ST1926, E-4-(3-(1-adamantyl)-4-hydroxyphenyl)cinnamic acid], the IC50 [1] is listed as 200 nM, the “activity in the F9 assay compared with compound 1 (in words)” value [2] is listed as “lower activities” and the APOPTOSIS [3, 6] is listed as 9. The G0/G1 [3, 6] was 54.0, the “G2 + M” value [3, 6] was 21.8 and the S [3, 6] was 24.2. The APOPTOSIS [3, 7] was 13, the G0/G1 [3, 7] was 44.6 and the “G2 + M” value [3, 7] was 25.0. For the same molecule, the S [3, 7] was 30.4, the APOPTOSIS [3, 8] was 11 and the G0/G1 [3, 8] was 55.8. The “G2 + M” value [3, 8] was 20.6, the S [3, 8] was 23.6 and the APOPTOSIS [3, 9] was 15. The G0/G1 [3, 9] was 44.9, the “G2 + M” value [3, 9] was 25.6 and the S [3, 9] was 29.5. For the same molecule, the APOPTOSIS [3, 10] was 10, the G0/G1 [3, 10] was 52.0 and the “G2 + M” value [3, 10] was 28.0. For the same molecule, the S [3, 10] was 35.4, the APOPTOSIS [3, 11] was 10 and the G0/G1 [3, 11] was 45.8. For the same molecule, the “G2 + M” value [3, 11] was 28.4, the S [3, 11] was 25.8 and the APOPTOSIS ([3]; PC3, 0.2 μM, 24 hours of treatment and 0 hours of recovery) was 13.5. The APOPTOSIS [3, 12] was 13, the G0/G1 [3, 12] was 31.8 and the “G2 + M” value [3, 12] was 25.0. For the same molecule, the S [3, 12] was 43.2, the “effect on PC3 cells at the end of treatment (in words)” value ([3]; PC3, 0.4 μM, 24 hours of treatment) was “induced apoptosis” and the APOPTOSIS ([3]; PC3, 0.4 μM, 24 hours of treatment and 0 hours of recovery) was 25. The APOPTOSIS ([3]; PC3, 0.4 μM, 24 hours of treatment and 24 hours of recovery) was 26, the IC50 [4] was 190 nM and the IC50 [5] was 200 nM.
